For 21 compounds, Inhibition and inhibition results are on record in ChEMBL document CHEMBL1129230, “Inhibitory effects of scopadulcic acid B and its derivatives on bone resorption and osteoclast formation in vitro” (1996).

Type in all cases: functional
The species entered for assay [1] is Mus musculus. Briefly: Inhibition of PTH-stimulated bone resorption at concentration of 2 uM.
The species entered for assay [2] is Mus musculus. In words: Inhibition of PTH-stimulated bone resorption at concentration of 5 uM.
The species named for assay [3] is Mus musculus. Briefly: Inhibition of PTH-stimulated osteoclast-like cell formation at concentration 10 uM.
For assay [4], the species on record is Mus musculus. Briefly: Inhibition of PTH-stimulated osteoclast-like cell formation at concentration 2 uM.
Assay [5] is filed under the species Mus musculus. In words: Inhibition of PTH-stimulated osteoclast-like cell formation at concentration 5 uM.
For assay [6], the species on record is Mus musculus. Briefly: compound was evaluated in vitro for the inhibition of PTH-stimulated osteoclast-like cell formation at concentration 2 uM.
The species named for assay [7] is Mus musculus. Briefly: compound was evaluated in vitro for the inhibition of PTH-stimulated osteoclast-like cell formation at concentration 5 uM.
The species entered for assay [8] is Mus musculus. Briefly: compound was evaluated in vitro for the inhibition of PTH-stimulated osteoclast-like cell formation at concentration 10 uM.
Assay [9] is filed under the species Mus musculus. In words: Inhibition of PTH-stimulated bone resorption at concentration of 10 uM.
For assay [10], the species on record is Mus musculus. In words: compound was evaluated in vitro for the inhibition of PTH-stimulated osteoclast-like cell formation at concentration 0.05 uM.
The species named for assay [11] is Mus musculus. In words: compound was evaluated in vitro for the inhibition of PTH-stimulated osteoclast-like cell formation at concentration 0.1 uM.
Assay [12] is filed under the species Mus musculus. Briefly: compound was evaluated in vitro for the inhibition of PTH-stimulated osteoclast-like cell formation at concentration 0.5 uM.

Structures are written as SMILES.

Consider `C[C@@]1(CO)CCC[C@@]2(C)C1[C@H](OC(=O)c1ccccc1)C[C@H]1C[C@@H](O)[C@@]3(C)CC[C@]12C3` (stereo partly drawn), for which the Inhibition (as a rule, the drop in the measured response relative to a control, in per cent) in the assay listed under Mus musculus [1] is on record as -60%; in the assay filed under Mus musculus [2], 95%. Besides, the inhibition (in general, the relative decrease from the control value, in per cent) at 10 µM in the assay listed under Mus musculus [3] stood at 105%. Besides, the inhibition at 2 µM in the assay listed under Mus musculus [4] came out at 17%. Besides, the inhibition at 5 µM in the assay filed under Mus musculus [5] was determined as 87%.
Turning to `C[C@@]1(CO)CCC[C@@]2(C)C1[C@H](OC(=O)c1ccccc1)C[C@H]1C[C@H](O)[C@@]3(C)CC[C@]12C3` (stereo partly drawn), the Inhibition in the assay filed under Mus musculus [1] was -51%; in the assay listed under Mus musculus [2] it was 99%. The inhibition at 2 µM in the assay listed under Mus musculus [6] was determined as 24%. Further, the inhibition at 5 µM in the assay filed under Mus musculus [7] worked out at 75%. In addition, the inhibition at 10 µM in the assay filed under Mus musculus [8] was 94%.
In the case of `C[C@]12CC[C@]3(C1)C(CC2=O)C[C@@H](OC(=O)c1ccccc1)C1[C@](C)(CO)CCC[C@@]13C` (stereo partly drawn), the Inhibition in the assay filed under Mus musculus [1] is on record as 106%; in the assay filed under Mus musculus [2] it was 99%; in the assay filed under Mus musculus [9] it was 99%. For the same compound, the inhibition at 0.05 µM in the assay filed under Mus musculus [10] was found to be 44%. Besides, the inhibition at 0.1 µM in the assay listed under Mus musculus [11] was determined as 115%. Besides, the inhibition at 0.5 µM in the assay listed under Mus musculus [12] is 137%. For the same compound, the inhibition at 10 µM in the assay listed under Mus musculus [3] worked out at 137%. For the same compound, in the assay filed under Mus musculus [4], the inhibition at 2 µM was 137%. The inhibition at 5 µM in the assay filed under Mus musculus [5] is 137%.
`C[C@]12CC[C@]3(C1)[C@@H](C[C@@H](O)[C@H]1[C@](C)(CO)CCC[C@@]13C)C[C@H]2O`: the Inhibition in the assay listed under Mus musculus [1] is reported as -8%; in the assay filed under Mus musculus [2] it was 6%; in the assay filed under Mus musculus [9], -17%.
Consider `CC(=O)OC[C@]1(C)CCC[C@@]2(C)[C@H]1[C@H](OC(=O)c1ccccc1)C[C@H]1CC(=O)[C@@]3(C)CC[C@]12C3`, for which the Inhibition in the assay listed under Mus musculus [1] amounted to 12%; in the assay listed under Mus musculus [2] it was 107%; in the assay listed under Mus musculus [9] it was 125%. In the assay filed under Mus musculus [3], the inhibition at 10 µM was 105%. The inhibition at 2 µM in the assay filed under Mus musculus [4] came to 45%. In addition, the inhibition at 5 µM in the assay filed under Mus musculus [5] amounted to 90%.
On to `CC(=O)O[C@@H]1C[C@H]2CC(=O)[C@@]3(C)CC[C@@]2(C3)[C@@]2(C)CCC[C@@](C)(C(=O)O)[C@H]12`, for which the Inhibition in the assay filed under Mus musculus [1] turned out to be 33%; in the assay listed under Mus musculus [2], 40%; in the assay filed under Mus musculus [9], 47%. The inhibition at 10 µM in the assay listed under Mus musculus [3] was 37%. The inhibition at 2 µM in the assay listed under Mus musculus [4] is -8%. In addition, the inhibition at 5 µM in the assay listed under Mus musculus [5] amounted to 27%.
Regarding `C[C@]12CC[C@]3(C1)[C@@H](C[C@@H](OC(=O)c1ccccc1)[C@H]1[C@](C)(C(=O)O)CCC[C@@]13C)C[C@@H]2O`, the Inhibition is reported as 35% in the assay filed under Mus musculus [1], 39% in the assay filed under Mus musculus [2] and 70% in the assay listed under Mus musculus [9]. Besides, in the assay filed under Mus musculus [3], the inhibition at 10 µM was found to be 93%. The inhibition at 2 µM in the assay listed under Mus musculus [4] came to 24%. The inhibition at 5 µM in the assay filed under Mus musculus [5] was determined as 75%.
In the case of `COC(=O)[C@]1(C)CCC[C@@]2(C)[C@H]1[C@H](OC(=O)c1ccccc1)C[C@H]1C[C@H](OC(C)=O)[C@@]3(C)CC[C@]12C3`, the Inhibition in the assay filed under Mus musculus [1] was found to be 38%; in the assay listed under Mus musculus [2], 51%; in the assay filed under Mus musculus [9], 55%. Moreover, in the assay filed under Mus musculus [3], the inhibition at 10 µM is 134%. Also, the inhibition at 2 µM in the assay listed under Mus musculus [4] amounted to 81%. For the same compound, the inhibition at 5 µM in the assay listed under Mus musculus [5] stood at 109%.
As for `COC(=O)[C@]1(C)CCC[C@@]2(C)[C@H]1[C@H](OC(=O)c1ccccc1)C[C@H]1C[C@@H](O)[C@@]3(C)CC[C@]12C3`, the Inhibition in the assay listed under Mus musculus [1] came out at 22%; in the assay listed under Mus musculus [2], 29%; in the assay listed under Mus musculus [9] it was 49%.
On the same counts, the results for `COC(=O)[C@]1(C)CCC[C@@]2(C)[C@H]1[C@H](OC(=O)c1ccccc1)C[C@H]1C[C@H](O)[C@@]3(C)CC[C@]12C3` are -23%, -17% and -10%.
In the case of `C[C@]12CC[C@]3(C1)[C@H](C/C2=N\O)C[C@@H](OC(=O)c1ccccc1)[C@H]1[C@](C)(C(=O)O)CCC[C@@]13C`, the figures for the Inhibition in the assay filed under Mus musculus [1], in the assay filed under Mus musculus [2] and in the assay filed under Mus musculus [9] were 28%, 66% and 90%, respectively.
Regarding `CC(=O)O[C@@H]1C[C@@H]2C[C@@H](OC(=O)c3ccccc3)[C@H]3[C@](C)(C(=O)O)CCC[C@]3(C)[C@]23CC[C@@]1(C)C3`, the Inhibition in the assay listed under Mus musculus [1] is reported as 27%; in the assay listed under Mus musculus [2], 26%; in the assay filed under Mus musculus [9] it was 42%. The inhibition at 10 µM in the assay listed under Mus musculus [3] is 79%. Also, in the assay listed under Mus musculus [4], the inhibition at 2 µM was determined as 55%. Also, the inhibition at 5 µM in the assay filed under Mus musculus [5] stood at 72%.
Consider `COC(=O)[C@]1(C)CCC[C@@]2(C)[C@H]1[C@H](OC(=O)c1ccccc1)C[C@H]1C[C@@H](OC(C)=O)[C@@]3(C)CC[C@]12C3`, for which the Inhibition is 55% in the assay listed under Mus musculus [1], 40% in the assay filed under Mus musculus [2] and 37% in the assay listed under Mus musculus [9]. The inhibition at 10 µM in the assay filed under Mus musculus [3] is 112%. For the same compound, in the assay listed under Mus musculus [4], the inhibition at 2 µM was 60%. Besides, the inhibition at 5 µM in the assay filed under Mus musculus [5] was 70%.
As for `C[C@]12CC[C@]3(C1)[C@H](C[C@H]2O)C[C@@H](OC(=O)c1ccccc1)[C@H]1[C@](C)(C(=O)O)CCC[C@@]13C`, the Inhibition in the assay listed under Mus musculus [1] stood at 45%; in the assay filed under Mus musculus [2], 40%; in the assay listed under Mus musculus [9], 37%. The inhibition at 10 µM in the assay listed under Mus musculus [3] worked out at 104%. The inhibition at 2 µM in the assay filed under Mus musculus [4] came to 17%. Besides, the inhibition at 5 µM in the assay filed under Mus musculus [5] was 87%.
For `COC(=O)[C@]1(C)CCC[C@@]2(C)[C@H]1[C@H](OC(=O)c1ccccc1)C[C@H]1CC(=O)[C@@]3(C)CC[C@]12C3`, the values for the Inhibition in the assay filed under Mus musculus [1], in the assay filed under Mus musculus [2] and in the assay filed under Mus musculus [9] were 78%, 74% and 110%, respectively. Besides, in the assay listed under Mus musculus [3], the inhibition at 10 µM stood at 118%. Further, the inhibition at 2 µM in the assay listed under Mus musculus [4] stood at 70%. Moreover, the inhibition at 5 µM in the assay filed under Mus musculus [5] amounted to 91%.
As for `C[C@]12CC[C@]3(C1)[C@@H](C[C@@H](O)[C@H]1[C@](C)(CO)CCC[C@@]13C)C[C@@H]2O`, the results for the Inhibition in the assay listed under Mus musculus [1], in the assay listed under Mus musculus [2] and in the assay listed under Mus musculus [9] were -5%, -25% and -4%, respectively.
As to `CC(=O)O[C@H]1C[C@@H]2C[C@@H](OC(=O)c3ccccc3)[C@H]3[C@](C)(C(=O)O)CCC[C@]3(C)[C@]23CC[C@@]1(C)C3`, the Inhibition in the assay listed under Mus musculus [1] was 21%; in the assay filed under Mus musculus [2] it was 18%; in the assay listed under Mus musculus [9] it was 8%.
On to `C[C@]12CC[C@]3(C1)C(CC2=O)C[C@@H](O)C1[C@](C)(C(=O)O)CCC[C@@]13C` (stereo partly drawn), for which the results for the Inhibition in the assay listed under Mus musculus [1], in the assay filed under Mus musculus [2] and in the assay listed under Mus musculus [9] were 43%, 92% and 94%, respectively. In addition, in the assay listed under Mus musculus [3], the inhibition at 10 µM worked out at 20%. Also, the inhibition at 2 µM in the assay listed under Mus musculus [4] is 0%. Besides, the inhibition at 5 µM in the assay filed under Mus musculus [5] came out at 10%.
For `CC(=O)OC[C@]1(C)CCC[C@@]2(C)C1[C@H](O)CC1C[C@H](OC(C)=O)[C@@]3(C)CC[C@]12C3` (stereo partly drawn), the Inhibition is 1% in the assay listed under Mus musculus [1], 23% in the assay listed under Mus musculus [2] and 11% in the assay listed under Mus musculus [9].
On the same counts, the results for `C[C@]12CC[C@]3(C1)[C@H](CC2=O)C[C@@H](OC(=O)c1ccccc1)[C@H]1[C@@](CO)(C(=O)O)CCC[C@@]13C` [SCOPADULCIC ACID A] are 46%, 24% and -14%.
In the case of `C[C@]12CC[C@]3(C1)[C@H](CC2=O)C[C@@H](OC(=O)c1ccccc1)[C@H]1[C@](C)(C(=O)O)CCC[C@@]13C` [SCOPADULCIC ACID B], the Inhibition in the assay listed under Mus musculus [1] is on record as 28%; in the assay filed under Mus musculus [2], 76%; in the assay filed under Mus musculus [9] it was 94%. Also, in the assay listed under Mus musculus [3], the inhibition at 10 µM came to 87%. In the assay filed under Mus musculus [4], the inhibition at 2 µM came out at 59%. For the same compound, in the assay listed under Mus musculus [5], the inhibition at 5 µM is 74%.
